What is called IC50 is the concentration that gives 50% inhibition.

The target in this assay is human P2X3 receptor (Homo sapiens (Human), UniProt P56373). The assay can be described thus: Evaluation of human P2X3 receptor inhibitory activity (Fluo-3 calcium fluorescence, FDSS 3000, ATP stimulation).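 Further: stimulus was 50 nM ATP with fluorescence followed for 3 min, and the response per well was peak post-ATP fluorescence divided by the reading at measurement start.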 Type of assay: cell-based. The settings on record: C6BU-1 cells stably expressing human P2X3 receptor, Fluo-3 fluorescence, FDSS 3000.
human P2X3 receptor, sequence (P56373 whole entry): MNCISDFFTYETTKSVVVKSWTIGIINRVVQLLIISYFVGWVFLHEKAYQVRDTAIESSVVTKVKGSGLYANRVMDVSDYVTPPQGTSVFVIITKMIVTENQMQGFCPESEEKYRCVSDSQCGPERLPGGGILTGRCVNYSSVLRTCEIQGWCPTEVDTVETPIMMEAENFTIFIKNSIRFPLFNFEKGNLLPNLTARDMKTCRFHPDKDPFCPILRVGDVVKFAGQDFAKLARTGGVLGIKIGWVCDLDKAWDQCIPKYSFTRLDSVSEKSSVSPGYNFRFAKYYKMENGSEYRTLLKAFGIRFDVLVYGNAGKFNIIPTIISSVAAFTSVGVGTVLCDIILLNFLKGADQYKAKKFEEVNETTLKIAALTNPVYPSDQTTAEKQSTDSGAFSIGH

With `Cc1cc(/N=c2\[nH]c(=O)n(CC3(CO)COC3)c(=O)n2Cc2ccc(Cl)cc2)ccc1OC(C)C` [Compound I-0906], the IC50 stood at 0.008 µM.

Take `C=Cc1cc(/N=c2\[nH]c(=O)n(C[C@H](C)C(=O)OC)c(=O)n2Cc2ccc(C)cc2)ccc1OC(C)C` [Compound I-0907, (S)-1-(4-methylbenzyl)-6-(3-vinyl-4-isopropoxyphenylimino)-3-(2-methoxycarbonylpropyl)-1,3,5-triazinane-2,4-dion]: the IC50 stood at 0.007 µM.

For the molecule `CCc1cc(/N=c2\[nH]c(=O)n(C[C@H](C)C(=O)OC)c(=O)n2Cc2ccc(C)cc2)ccc1OC(C)C` [Compound I-0908, (S)-1-(4-methylbenzyl)-6-(3-ethyl-4-isopropoxyphenylimino)-3-(2-methoxycarbonylpropyl)-1,3,5-triazinane-2,4-dion], the IC50 turned out to be 0.013 µM.

Take `Cc1ccc(Cn2c(=O)n(C[C@H](C)C(=O)O)c(=O)[nH]/c2=N\c2ccc(OC(C)C)c(Br)c2)cc1` [Compound I-0909]: the IC50 is 0.007 µM.

On to `C=Cc1cc(/N=c2\[nH]c(=O)n(C[C@H](C)C(=O)O)c(=O)n2Cc2ccc(C)cc2)ccc1OC(C)C` [Compound I-0910, (S)-1-(4-methylbenzyl)-6-(3-vinyl-4-isopropoxyphenylimino)-3-(2-hydroxycarbonylpropyl)-1,3,5-triazinane-2,4-dion], for which the IC50 worked out at 0.008 µM.

Turning to `CCc1cc(/N=c2\[nH]c(=O)n(C[C@H](C)C(=O)O)c(=O)n2Cc2ccc(C)cc2)ccc1OC(C)C` [Compound I-0911, (S)-1-(4-methylbenzyl)-6-(3-ethyl-4-isopropoxyphenylimino)-3-(2-hydroxycarbonylpropyl)-1,3,5-triazinane-2,4-dion], the IC50 turned out to be 0.015 µM.

`CCCOc1ccc(/N=c2\[nH]c(=O)n(CC3(C(=O)OCC)CC3)c(=O)n2Cc2ccc(C)cc2)cc1` [Compound I-0912]: the IC50 came out at 0.01 µM.

With `CCOC(=O)C1(Cn2c(=O)[nH]/c(=N\c3ccc(OCC4CC4)cc3)n(Cc3ccc(C)cc3)c2=O)CC1` [Compound I-0913], the IC50 turned out to be 0.009 µM.

Take `Cc1ccc(Cn2c(=O)n(CC3(C(=O)O)CC3)c(=O)[nH]/c2=N\c2ccc(OCC3CC3)cc2)cc1` [Compound I-0915]: the IC50 is 0.075 µM.

For `CCOc1ccc(/N=c2\[nH]c(=O)n([C@@H](C)[C@@H](C)C(=O)OC)c(=O)n2Cc2ccc(Cl)cc2)cc1Cl` [Compound I-0916], the IC50 was 0.019 µM.

Turning to `COC(=O)[C@H](C)[C@H](C)n1c(=O)[nH]/c(=N\c2ccc(OC(C)C)c(Cl)c2)n(Cc2ccc(Cl)cc2)c1=O` [Compound I-0917], the IC50 is 0.019 µM.

For the molecule `CCOC(=O)C1(Cn2c(=O)[nH]/c(=N\c3ccc(OCC)c(Cl)c3)n(Cc3ccc(Cl)cc3)c2=O)CC1` [Compound I-0918], the IC50 turned out to be 0.014 µM.

For the molecule `CCCOc1ccc(/N=c2\[nH]c(=O)n(CC3(C(=O)OCC)CC3)c(=O)n2Cc2ccc(Cl)cc2)cc1` [Compound I-0919], the IC50 was found to be 0.014 µM.

As to `CCCOc1ccc(/N=c2\[nH]c(=O)n([C@@H](C)[C@@H](C)C(=O)O)c(=O)n2Cc2ccc(Cl)cc2)cc1` [Compound I-0920], the IC50 was found to be 0.037 µM.

Take `C[C@@H](C(=O)O)[C@H](C)n1c(=O)[nH]/c(=N\c2ccc(OCC3CC3)cc2)n(Cc2ccc(Cl)cc2)c1=O` [Compound I-0921]: the half-inhibitory concentration (IC50) stood at 0.03 µM.

Regarding `CCOc1ccc(/N=c2\[nH]c(=O)n([C@@H](C)[C@@H](C)C(=O)O)c(=O)n2Cc2ccc(Cl)cc2)cc1Cl` [Compound I-0922], the IC50 came out at 0.029 µM.

For the molecule `CC(C)Oc1ccc(/N=c2\[nH]c(=O)n([C@@H](C)[C@@H](C)C(=O)O)c(=O)n2Cc2ccc(Cl)cc2)cc1Cl` [Compound I-0923], the IC50 was found to be 0.015 µM.

For the molecule `CCOc1ccc(/N=c2\[nH]c(=O)n(CC3(C(=O)O)CC3)c(=O)n2Cc2ccc(Cl)cc2)cc1Cl` [Compound I-0924], the IC50 was 0.03 µM.

Regarding `CCCOc1ccc(/N=c2\[nH]c(=O)n(CC3(C(=O)O)CC3)c(=O)n2Cc2ccc(Cl)cc2)cc1` [Compound I-0925], the IC50 is 0.059 µM.

The values above are taken from US9718790B2, “Triazine derivative and pharmaceutical composition having an analgesic activity comprising the same” (SHIONOGI & CO., LTD., priority 2010, dated 2017).
